Results taken from ChEMBL document CHEMBL1133725, “Modeling of kappa-opioid receptor/agonists interactions using pharmacophore-based and docking simulations” (J Med Chem, 2000).
pKi: −log10 of the molar value.

Columns and labels:
[1] = biological target: T1, Kappa-type opioid receptor (Cavia porcellus, UniProt P41144); assay: Inhibition of [3H]U-69593 binding to Opioid receptor kappa 1 in guinea pig brain homogenates; assay type: tissue-based
[2] = biological target: T1, Kappa-type opioid receptor; assay: Inhibition of [3H]diprenorphine binding to Opioid receptor kappa 1 in guinea pig cerebellar fraction
[3] = biological target: T1, Kappa-type opioid receptor; assay: Inhibition of [3H]EKC binding to Opioid receptor kappa 1 in guinea pig forebrain

T1 sequence (P41144 whole entry): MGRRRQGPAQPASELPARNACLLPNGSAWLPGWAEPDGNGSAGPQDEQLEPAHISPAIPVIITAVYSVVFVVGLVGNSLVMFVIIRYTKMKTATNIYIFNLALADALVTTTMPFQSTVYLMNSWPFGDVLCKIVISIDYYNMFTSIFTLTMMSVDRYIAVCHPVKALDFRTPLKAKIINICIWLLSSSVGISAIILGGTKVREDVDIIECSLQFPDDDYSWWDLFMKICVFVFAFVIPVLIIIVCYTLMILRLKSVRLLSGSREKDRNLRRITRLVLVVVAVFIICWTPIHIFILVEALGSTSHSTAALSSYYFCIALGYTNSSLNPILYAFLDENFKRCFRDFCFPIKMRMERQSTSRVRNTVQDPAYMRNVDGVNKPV

Compound | pKi [1] | other results
CN1CCCC1[C@@H]1CCCCN1C(=O)Cc1ccc(Cl)c(Cl)c1 (stereo not given in full) | 9.48 | –
COC(=O)[C@]1(c2ccccc2)C[C@@H]1CN1CC[C@@]2(C)c3cc(O)ccc3CC1[C@@H]2C | – | pKi [2]: 6.62
O=C1[C@@H](c2ccc(Cl)c(Cl)c2)CCN1[C@H]1CCCC[C@@H]1N1CCCC1 | – | pKi [3]: 8.00
O=C([C@@H]1CCc2cc(Cl)c(Cl)cc21)N1CCSC[C@H]1CN1CCCC1 | 9.36 | –
O=C1N(c2ccc(Cl)c(Cl)c2)CCCN1[C@H](CN1CCCC1)c1ccccc1 | 9.38 | –
